Data on five compounds can be found in US10322097B2, “Treatment of subjects with multidrug-resistant cancer” (priority 2015, dated 2019).

≈ marks a conversion by molar mass, not a printed value. Where two headings read alike, the source gives them in different places.

Data set [1] has as its system HCT116 p53-/- colon cancer cells. Nature of the data set: MTT cytotoxicity assay, HCT116 p53-/-. The class given is cell-based. The note with it: for IC50: Homo sapiens, HCT-116, 72 h, read-out: IC50 HCT116 p53-/- colon cancer cells; for Resistant Factor: IC50 HCT116 p53-/- divided by IC50 HCT116 p53+/+. As for the experimental part:
(§1) Cell cultures and cytotoxicity assays have been used. Celastrol was dissolved in DMSO at a final concentration of 100 mmol/L and stored at −20° C. Cytotoxicity was assessed using the 3-(4,5-dimethylthiazol-2-yl)-2,5-diphenyltetrazolium bromide assay. 4000 cells from HCT116 p53^+/+ or p53^−/− colon cancer cells and DLD-1 Bax-Bak^+/+ or Bax-Bak^−/− colon cancer cells were seeded on 96-well plates per well. […] Subsequently, 10 μL of MTT reagents were added to each well and incubated at 37° C. for 4 hours followed by the addition of 100 μL solubilization buffer (10% SDS in 0.01 mol/L HCl) and overnight incubation. […] The percentage of cell viability was calculated using the following formula: Cell viability (%)=Cells number treated/Cells number DMSO control×100. Data were obtained from three independent experiments.
Background: Formazan colour is commonly taken as a measure of viable cells.

Data set [2] relates to DLD-1 Bax-Bak-/- colon cancer cells. In words: MTT cytotoxicity assay, DLD-1 Bax-Bak-/-. It is filed as cell-based. The conditions noted are these: for Resistant Factor: IC50 DLD-1 Bax-Bak-/- divided by IC50 DLD-1 Bax-Bak+/+; for IC50: Homo sapiens, DLD-1, 72 h, MTT, 3 days, read-out: IC50 DLD-1 Bax-Bak-/- colon cancer cells. On the procedure: as §1
Data set [3] relates to HCT116 p53+/+ colon cancer cells. Nature of the data set: MTT cytotoxicity assay, HCT116 p53+/+. It is filed as cell-based. The note with it: Homo sapiens, HCT-116, 72 h, read-out: IC50 HCT116 p53+/+ colon cancer cells. On the procedure:
as §1

In data set [4] the test system is DLD-1 Bax-Bak+/+ colon cancer cells. In words: MTT cytotoxicity assay, DLD-1 Bax-Bak+/+. The class given is cell-based. The conditions noted are these: Homo sapiens, DLD-1, 72 h; MTT, 3 days; read-out: IC50 DLD-1 Bax-Bak+/+ colon cancer cells. On the procedure:
as §1

Data set [5] deals with A549 (Lung) taxol resistant cancer cells. In words: MTT cytotoxicity assay, A549 taxol resistant. The class given is cell-based, human. The note with it: for Resistant Factor: A549 taxol resistant versus taxol sensitive. On the procedure: (§2) Cell cultures and cytotoxicity assays have been used. Celastrol was dissolved in DMSO at a final concentration of 100 mmol/L and stored at −20° C. Cytotoxicity was assessed using the 3-(4,5-dimethylthiazol-2-yl)-2,5-diphenyltetrazolium bromide assay. 4000 cells from A549 (lung), A2780 (ovary), HCT-8 (colon) and MCF-7 (breast) cancer cells were seeded on 96-well plates per well. After overnight pre-incubation, the cells were exposed to different concentrations of celastrol (0.039-100 μmol/L) or taxol for 3 days. Subsequently, 10 μL of MTT reagents was added to each well and incubated at 37° C. for 4 hours followed by the addition of 100 μL solubilization buffer (10% SDS in 0.01 mol/L HCl) and overnight incubation. Absorbance at 585 nm was determined from each well the next day. The percentage of cell viability was calculated using the following formula: Cell viability (%)=Cells number treated/Cells number DMSO control×100. Data were obtained from three independent experiments.

In data set [6] the test system is MCF-7 (Breast) taxol sensitive cancer cells. In words: MTT cytotoxicity assay, MCF-7 taxol sensitive. It is filed as cell-based. The note with it: Homo sapiens, MCF7, 72 h; MTT, 3 days; read-out: IC50 MCF-7 (Breast) (Taxol sensitive). As for the experimental part:
as §2

The subject of data set [7] is MCF-7 (Breast) taxol resistant cancer cells. In words: MTT cytotoxicity assay, MCF-7 taxol resistant. It is filed as cell-based, human. As for the experimental part:
as §2

The subject of data set [8] is A549 taxol-resistant lung cancer cells. Nature of the data set: MTT cytotoxicity of taxol in presence or absence of celastrol. It is filed as cell-based. The conditions noted are these: Homo sapiens, A549, 72 h, 3 days. As for the experimental part:
Cell cultures and cytotoxicity assays have been carried out. Celastrol was dissolved in DMSO at a final concentration of 100 mmol/L and stored at −20° C. Cytotoxicity was assessed using the 3-(4,5-dimethylthiazol-2-yl)-2,5-diphenyltetrazolium bromide assay. 4000 cells from A549 taxol-resistant lung cancer cells were seeded on 96-well plates per well. After overnight pre-incubation, the cells were exposed to different concentrations of taxol (0.019-100 μmol/L) in the presence or absence of celastrol (0.5 μM) for 3 days. Subsequently, 10 μL of MTT reagents was added to each well and incubated at 37° C. for 4 hours followed by the addition of 100 μL solubilization buffer (10% SDS in 0.01 mol/L HCl) and overnight incubation. […] The percentage of cell viability was calculated using the following formula: Cell viability (%)=Cells number treated/Cells number DMSO control×100. Data were obtained from three independent experiments.

Data set [9] has as its system A549 (Lung) taxol sensitive cancer cells. In words: MTT cytotoxicity assay, A549 taxol sensitive. It is filed as cell-based. The note with it: Homo sapiens, A549, 72 h; MTT, 3 days; read-out: IC50 A549 (Lung) (Taxol sensitive). As for the experimental part:
as §2

Data set [10] relates to HCT-8 (Colon) taxol resistant cancer cells. In words: MTT cytotoxicity assay, HCT-8 taxol resistant. It is filed as cell-based, human. The conditions noted are these: for Resistant Factor: HCT-8 taxol resistant versus taxol sensitive. As for the experimental part:
as §2

For data set [11], the system named is A2780 (Ovary) taxol sensitive cancer cells. In words: MTT cytotoxicity assay, A2780 taxol sensitive. It is filed as cell-based. The conditions noted are these: Homo sapiens, A2780, 72 h; MTT, 3 days; read-out: IC50 A2780 (Ovary) (Taxol sensitive). As for the experimental part:
as §2

The subject of data set [12] is A2780 (Ovary) taxol resistant cancer cells. In words: MTT cytotoxicity assay, A2780 taxol resistant. It is filed as cell-based, human. The note with it: for Resistant Factor: A2780 taxol resistant versus taxol sensitive. As for the experimental part:
as §2

For data set [13], the system named is HCT-8 (Colon) taxol sensitive cancer cells. Nature of the data set: MTT cytotoxicity assay, HCT-8 taxol sensitive. The conditions noted are these: Homo sapiens, HCT-8, 72 h; MTT, 3 days; read-out: IC50 HCT-8 (Colon) (Taxol sensitive). The class given is cell-based. As for the experimental part:
as §2

For a further data set, the target named is P-gp (Homo sapiens, UniProt P08183). Nature of the data set: Rho123 efflux assay in A549 taxol-resistant lung cancer cells (flow cytometry). The conditions noted are these: 0.5 μM celastrol, pristimerin or dihydrocelastrol, or 10 μM verapamil, 24 h, then Rho123 1 h. As for the experimental part: A549 taxol-resistant lung cancer cells were seeded in 6 well-plates at a final concentration of 2×10^5 cells per well and cultured for 24 h at 37° C. in an atmosphere containing 5% CO2. […] Subsequently, 5 mg/mL Rho123 was added to each well and the wells were incubated for another 1 h at 37° C. At the end of the incubation, the accumulation of Rho123 was stopped by washing the cells five times with ice-cold PBS. After cell centrifugation, cell pellets were resuspended in 400 μL PBS. […] All data acquisition and analyses were performed with CellQuest (BD Biosciences, San Jose, Calif., USA) in triplicate in three independent experiments, and the results were shown as the mean of fluorescence intensity.
Chain of P-gp (P08183 whole entry): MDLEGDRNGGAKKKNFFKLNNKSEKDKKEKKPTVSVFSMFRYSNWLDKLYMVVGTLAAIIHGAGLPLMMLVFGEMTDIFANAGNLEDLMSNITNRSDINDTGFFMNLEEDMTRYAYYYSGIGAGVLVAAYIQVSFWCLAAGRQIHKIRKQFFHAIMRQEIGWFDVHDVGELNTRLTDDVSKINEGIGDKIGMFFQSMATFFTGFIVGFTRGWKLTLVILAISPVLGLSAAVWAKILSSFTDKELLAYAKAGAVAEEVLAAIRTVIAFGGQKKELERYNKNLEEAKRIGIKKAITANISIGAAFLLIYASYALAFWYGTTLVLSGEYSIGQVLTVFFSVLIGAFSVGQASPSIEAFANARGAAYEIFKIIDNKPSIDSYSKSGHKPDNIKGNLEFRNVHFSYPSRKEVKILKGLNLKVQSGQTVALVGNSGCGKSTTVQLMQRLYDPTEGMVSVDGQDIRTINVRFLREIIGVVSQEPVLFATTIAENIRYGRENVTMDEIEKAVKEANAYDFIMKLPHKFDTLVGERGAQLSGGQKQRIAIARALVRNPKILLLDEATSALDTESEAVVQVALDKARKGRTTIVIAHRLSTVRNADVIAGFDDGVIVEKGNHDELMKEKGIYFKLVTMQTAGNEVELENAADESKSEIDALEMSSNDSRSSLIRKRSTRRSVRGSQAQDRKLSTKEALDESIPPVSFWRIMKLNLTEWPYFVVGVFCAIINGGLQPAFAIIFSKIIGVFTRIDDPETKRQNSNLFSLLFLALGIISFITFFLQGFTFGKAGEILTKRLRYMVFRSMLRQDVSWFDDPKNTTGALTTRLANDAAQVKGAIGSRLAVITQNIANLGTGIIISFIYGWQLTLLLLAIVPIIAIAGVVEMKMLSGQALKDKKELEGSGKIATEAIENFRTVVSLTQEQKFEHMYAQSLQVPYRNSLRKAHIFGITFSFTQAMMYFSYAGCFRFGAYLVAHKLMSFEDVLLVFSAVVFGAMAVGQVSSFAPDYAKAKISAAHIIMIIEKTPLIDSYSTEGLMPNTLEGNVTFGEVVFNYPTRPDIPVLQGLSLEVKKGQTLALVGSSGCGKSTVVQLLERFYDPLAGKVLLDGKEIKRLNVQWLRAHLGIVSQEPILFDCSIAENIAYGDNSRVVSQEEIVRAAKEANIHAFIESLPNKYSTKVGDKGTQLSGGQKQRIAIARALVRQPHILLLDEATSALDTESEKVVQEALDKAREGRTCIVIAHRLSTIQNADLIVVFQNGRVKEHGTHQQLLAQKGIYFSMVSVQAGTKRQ
A549 taxol-resistant lung cancer cells were seeded in 6 well-plates at a final concentration of 2×10^5 cells per well and cultured for 24 h at 37° C. in an atmosphere containing 5% CO2. […] All data acquisition and analyses were performed with CellQuest (BD Biosciences, San Jose, Calif., USA) in triplicate in three independent experiments, and the results were shown as the mean of fluorescence intensity.

Data set [14] has as its system MCF-7 (Breast) doxorubicin resistant cancer cells. Nature of the data set: MTT cytotoxicity assay, MCF-7 doxorubicin resistant. It is filed as cell-based, human. As for the experimental part:
as §2, with “from” for “from A549 (lung), A2780 (ovary), HCT-8 (colon) and”, “MCF-7 doxorubicin sensitive/resistant breast” for “MCF-7 (breast)”, “cancer cells or CEM doxorubicin sensitive/resistant leukemia” for “cancer”, “or doxorubicin” for “or taxol”, “reagents were” for “reagents was”

Turning to `CN[C@@H]1C[C@H]2O[C@@](C)([C@@H]1OC)n1c3ccccc3c3c4c(c5c6ccccc6n2c5c31)C(=O)NC4` [Staurosporine, staurosporine], in [1] (MTT, 3 days), the IC50 amounted to 48 nM. The “Resistant Factor” value was 13.01 in data set [1] and 3.34 in [2].
`COc1cc([C@@H]2c3cc4c(cc3[C@@H](O[C@@H]3O[C@@H]5CO[C@@H](C)O[C@H]5[C@H](O)[C@H]3O)[C@H]3COC(=O)[C@H]23)OCO4)cc(OC)c1O` [Etoposide, etoposide]: the IC50 in [1] (MTT, 3 days) was 10600 nM; in data set [3] (MTT, 3 days), 940 nM; in [4], 2360 nM; in [2], 40400 nM. The results for the “Resistant Factor” value in data set [1] and in data set [2] were 11.28 and 17.12, respectively.
Regarding `CC(=O)O[C@H]1C(=O)[C@@]2(C)[C@H]([C@H](OC(=O)c3ccccc3)[C@]3(O)C[C@H](OC(=O)[C@H](O)[C@@H](NC(=O)c4ccccc4)c4ccccc4)C(C)=C1C3(C)C)[C@]1(OC(C)=O)CO[C@@H]1C[C@@H]2O` [Taxol, paclitaxel (taxol)], the “Resistant Factor” value in data set [5] was 894.12; in data set [5] (listed as taxol) it was “over 894”; in data set [1], 12.87; in data set [7] (MCF-7 taxol resistant versus taxol sensitive) it was 5000; in data set [2], above 23.2; in data set [10], above 31000. Besides, the “Resistant Factor” value is given as 31000 in [10] (listed as taxol), above 62000 in [12] and “over 62000” in data set [12] (listed as taxol). For the same compound, the IC50 in data set [5] (Homo sapiens, A549, 72 h, MTT, 3 days, read-out: IC50 A549 (Lung) (Taxol resistant)) is 30400 nM; in data set [1] (MTT, 3 days), 251 nM; in [6] it was below 1 nM; in [7] (Homo sapiens, MCF7, 72 h, MTT, 3 days, read-out: IC50 MCF-7 (Breast) (Taxol resistant)) it was 5000 nM; in data set [3] (MTT, 3 days), 19.5 nM; in data set [4], 4.31 nM. Also, the IC50 was 2170 nM in data set [8] (co-treated with 0.5 μM celastrol, read-out: mean IC50 of taxol in the presence of celastrol); 36000 nM in data set [8] (taxol alone, read-out: mean IC50 of taxol); above 100 nM in data set [2]; 34 nM in [9]; 32000 nM in data set [10] (Homo sapiens, HCT-8, 72 h, MTT, 3 days, read-out: IC50 HCT-8 (Colon) (Taxol resistant)); below 1 nM in [11]. For the same compound, the IC50 in data set [12] (Homo sapiens, A2780, 72 h, MTT, 3 days, read-out: IC50 A2780 (Ovary) (Taxol resistant)) is 62000 nM; in [13], below 1 nM.
For `COC(=O)[C@]1(C)CC[C@]2(C)CC[C@]3(C)C4=CC=C5C(=CC(=O)C(O)=C5C)[C@]4(C)CC[C@@]3(C)[C@@H]2C1` [pristimerin], the “P-gp activity / Rho123 accumulation (Example 9)” value on P-gp is given as “showed P-pg inhibition”.
Regarding `COc1cccc2c1C(=O)c1c(O)c3c(c(O)c1C2=O)C[C@@](O)(C(=O)CO)C[C@@H]3O[C@H]1C[C@H](N)[C@H](O)[C@H](C)O1` [Doxorubicin, doxorubicin], the IC50 was 10200 nM in data set [1]; 520 nM in data set [3]; 0.0523 µg/mL in data set [4]; 0.539 µg/mL in [2]; 10 µg/mL (≈ 18.4 µM) in data set [14] (Homo sapiens, MCF7, 72 h, MTT, 3 days, read-out: IC50 MCF-7 (Breast) (Doxorubicin resistant)). The “Resistant Factor” value stood at 19.52 in data set [1], 10.31 in data set [2] and 21.6 in data set [14] (MCF-7 doxorubicin resistant versus doxorubicin sensitive).
